# Reference: patent publication US8426463B2, “[((1R,2S,5R)-2-isopropyl-5-methyl-cyclohexanecarbonyl)-amino]-acetic acid isopropyl ester and related compounds and their use in therapy” (priority 2011, dated 2013)
# Legend:
# cough = assay: Study 5: ODT in a smoker with chili pepper induced coughing fit; assay type: in vivo, human; conditions: two ODT tablets (2.5 mg each); one subject
# Procedure: A venture capitalist lived a stress-filled life and smoked two packs of cigarettes per day. […] They tried the ODT containing 2.5 mg of Gly-O-iPr and said that it felt great, but they were afraid that if they used it, they would smoke more. Later that evening, they went to a banquet of Northern Chinese cuisine and they started coughing when they ate a piece of fish that was heavily spiced with chili peppers. Everyone at the dinner table was alarmed by their coughing fit which was quite intense and made their face turn bright red.
# [1] = test system: oropharyngeal surface (non-keratinized stratified epithelium); assay: Oropharyngeal surface bioassay: ODT followed by chili pepper sauce challenge; assay type: in vivo, human; parameters: key to Non-Keratinized Stratified Epithelia (NKSE) Oropharyngeal Surface, attenuation of chili pepper sauce irritation: If there was no attenuation of the challenge stimuli, the score was (0); if there was partial inhibition, the score was (+); if there was complete attenuation of the irritant signal, the score was (++)
# Excerpt: Bioassay on Non-Keratinized Stratified Epithelium: Oropharyngeal Surface
# A number of irritants have been evaluated for evoking the cough sensation as a measure of pharygeal sensitivity (see, e.g., Morice et al., 2001, “Cough Challenge in the Assessment of Cough Reflex”, Brit. J. Clin. Pharmacol., Vol. 52, pp. 365-375). Usually, citric acid or capsaicin is delivered via the inhalation route to volunteers and the number of coughs counted. […] The chili pepper sauce mixes with the saliva and the saliva is then deposited on the posterior oropharynx. The chili pepper sauce used was Yank Sing® Chili Pepper Sauce (YS Gourmet Productions, Inc., PO Box 26189, San Francisco, Calif. 94126) and is a well-known condiment for use with dim sum (Chinese tea lunch). The sensations associated with the chili pepper sauce are located in the posterior wall of the mouth and are clearly recognized by the test subject and associated with a desire to clear the throat.
# The ODT was formulated by taking an ingredient, dissolving it in absolute ethanol, and then adding 10% by weight of maltitol, and 90% by weight of mannitol, and then an equal volume of distilled water. The mixture was the stirred with a glass rod, and dispensed onto a piece of wax paper with a disposable plastic pipette. The individual dried tablets weighed on average 150 mg each and when on the dorsal surface of the tongue, dissolved completely in saliva and coated the oropharyngeal surface. On average, the amount of the test substance was 2.5 to 3 mg per tablet.
# To test for anti-nociceptive activity, the ODT containing the test compound was first administered onto the dorsal surface of the tongue; 45 to 50 minutes later, the chili-pepper sauce challenge is administered. At this time, the coolness sensations from the test compound have dissipated and the test is to determine if an anti-nociceptive effect remains. Results were reported as follow: If there was no attenuation of the challenge stimuli, the score was (0), if there was partial inhibition, the score was (+), and if there was complete attenuation of the irritant signal, the score was (++). In the presence of an ODT containing an active ingredient that results in a (++) score, the irritative signals were completely absent, yet the salty taste used in the soy sauce of the condiment could be readily identified and tasted.
# In one formulation (used in the biological evaluation studies described herein), orally disintegrating tablets (ODTs) were prepared using an 80:20 by weight mixture of mannitol-maltitol (Pearlitol™ and Sweetpearl™, Roquette Freres, France). This carrier has the advantage of completely masking bitter tastes that might be present in some of the test compounds. The test compound was first mixed with the mannitol-maltitol using a mortar and pestle, and then suspended in an equal volume of 10:90 v/v ethanol-distilled water. A disposable pipette was then used to aliquot the liquid mixture onto a sheet of wax paper and dried at room temperature. The dried tablets were then weighed and sorted. It was found by experiment that an 80 mg tablet containing 2 to 3 mg of test compound dissolved within 15 seconds when placed on the dorsal surface of the tongue and provided a good test dose.
smiles,measurement,setting,value
"CC(C)OC(=O)CNC(=O)[C@@H]1C[C@H](C)CC[C@H]1C(C)C [Gly-O-iPr, [((1R,2S,5R)-2-isopropyl-5-methyl-cyclohexanecarbonyl)-amino]-acetic acid isopropyl ester]",effect on coughing fit,cough,the cough stopped within a few minutes
same,sensation on the oropharyngeal surface,[1]; ODT,refreshing cooling sensation
same,"Non-Keratinized Stratified Epithelia (NKSE) Oropharyngeal Surface, attenuation of chili pepper sauce irritation","[1]; ODT containing 2.5 to 3 mg of active ingredient, chili pepper sauce 45 minutes later",++
same,effect on the response to the chili pepper sauce,"[1]; ODT, same test conditions",blocked the response to the chili pepper sauce
